{"source": "patent US10407428B2", "about": "“Spiro-isoquinoline-1,4′-piperidine compounds having multimodal activity against pain” (ESTEVE PHARMACEUTICALS, S.A., priority 2014, dated 2019)", "data": [{"tested_on": "human σ1 receptor and human μ-opioid receptor", "assay": "Human σ1 receptor radioligand assay and human μ-opioid receptor radioligand assay (μ and σ1 dual binding)", "design": "key to μ and σ1 dual binding: +: Both Ki-μ and Ki-σ1>=500 nM; ++: One Ki<500 nM while the other Ki is >=500 nM; +++: Both Ki-μ and Ki-σ1<500 nM; ++++: Both Ki-μ and Ki-σ1<100 nM", "details": "not given", "units": {"Ki": "nM"}, "values": [{"compound": "CC(=O)N1CCc2ccccc2C12CCN(CC1CCOCC1)CC2", "note": "[Example 9, 1-(1′-((tetrahydro-2H-pyran-4-yl)methyl)-3,4-dihydro-2H-spiro[isoquinoline-1,4'-piperidine]-2-yl)ethanone]", "μ and σ1 dual binding": "++"}, {"compound": "CC(=O)N1CCc2ccccc2C12CCN(CCOC(C)C)CC2", "note": "[Example 11, 1-(1′-(2-isopropoxyethyl)-3,4-dihydro-2H-spiro[isoquinoline-1,4′-piperidine]-2-yl)ethanone]", "Ki": "< 500"}, {"compound": "CC(=O)N1CCc2ccccc2C12CCN(CC(C)C)CC2", "note": "[Example 12, 1-(1′-isobutyl-3,4-dihydro-2H-spiro[isoquinoline-1,4′-piperidine]-2-yl)ethanone]", "μ and σ1 dual binding": "++"}, {"compound": "CC(=O)N1CCc2ccccc2C12CCN(CC1CCCCC1)CC2", "note": "[Example 13, 1-(1′-(cyclohexylmethyl)-3,4-dihydro-2H-spiro[isoquinoline-1,4′-piperidine]-2-yl)ethanone]", "Ki": "< 500"}, {"compound": "CC(=O)N1CCc2ccccc2C12CCN(CCC(C)C)CC2", "note": "[Example 15, 1-(1′-isopentyl-3,4-dihydro-2H-spiro[isoquinoline-1,4′-piperidine]-2-yl)ethanone]", "Ki": "< 500"}, {"compound": "CC(=O)N1CCc2ccccc2C12CCN(Cc1ccccn1)CC2", "note": "[Example 17, 1-(1′-(pyridin-2-ylmethyl)-3,4-dihydro-2H-spiro[isoquinoline-1,4′-piperidine]-2-yl)ethanone]", "μ and σ1 dual binding": "++"}, {"compound": "CC(=O)N1CCc2ccccc2C12CCN(CCOc1ccccc1)CC2", "note": "[Example 20, 1-(1′-(2-phenoxyethyl)-3,4-dihydro-2H-spiro[isoquinoline-1,4′-piperidine]-2-yl)ethanone]", "μ and σ1 dual binding": "++"}, {"compound": "CCOCCN1CCC2(CC1)c1ccccc1CCN2C(C)=O", "note": "[Example 24, 1-(1′-(2-ethoxyethyl)-3,4-dihydro-2H-spiro[isoquinoline-1,4′-piperidine]-2-yl)ethanone]", "μ and σ1 dual binding": "++"}, {"compound": "CC(=O)N1CCc2ccccc2C12CCN(CCOCC1CC1)CC2", "note": "[Example 30, 1-(1′-(2-(cyclopropylmethoxy)ethyl)-3,4-dihydro-2H-spiro[isoquinoline-1,4′-piperidine]-2-yl)ethanone]", "Ki": "< 500"}, {"compound": "CC(=O)N1CCc2ccccc2C12CCN(CCOCC(C)C)CC2", "note": "[Example 31]", "Ki": "< 500"}, {"compound": "CC(=O)N1CCc2ccccc2C12CCN(CCOCc1ccccc1)CC2", "note": "[Example 32, 1-(1′-(2-(benzyloxy)ethyl)-3,4-dihydro-2H-spiro[isoquinoline-1,4′-piperidine]-2-yl)ethanone]", "μ and σ1 dual binding": "++"}, {"compound": "CC(=O)N1CCc2ccccc2C12CCN(CCC(=O)N(C)c1ccccc1)CC2", "note": "[Example 35, 3-(2-acetyl-3,4-dihydro-2H-spiro[isoquinoline-1,4′-piperidine]-1′-yl)-N-methyl-N-phenylpropanamide]", "μ and σ1 dual binding": "++"}, {"compound": "CC(=O)N1CCc2ccccc2C12CCN(CCOc1ccccn1)CC2", "note": "[Example 42, 1-(1′-(2-(Pyridin-2-yloxy)ethyl)-3,4-dihydro-2H-spiro[isoquinoline-1,4′-piperidine]-2-yl)ethanone]", "μ and σ1 dual binding": "++"}, {"compound": "CC(=O)N1CCc2ccccc2C12CCN(CCOc1cccnc1)CC2", "note": "[Example 43, 1-(1′-(2-(pyridin-3-yloxy)ethyl)-3,4-dihydro-2H-spiro[isoquinoline-1,4′-piperidine]-2-yl)ethanone]", "μ and σ1 dual binding": "++"}, {"compound": "CC(=O)N1CCc2ccccc2C12CCN(CCOc1ccncc1)CC2", "note": "[Example 44, 1-(1′-(2-(pyridin-4-yloxy)ethyl)-3,4-dihydro-2H-spiro[isoquinoline-1,4′-piperidine]-2-yl)ethanone]", "μ and σ1 dual binding": "++"}, {"compound": "CS(=O)(=O)N1CCc2ccccc2C12CCN(CCc1ccccc1)CC2", "note": "[Example 53, 2-(Methylsulfonyl)-1′-phenethyl-3,4-dihydro-2H-spiro[isoquinoline-1,4′-piperidine]]", "Ki": "< 100"}, {"compound": "CN1CCc2ccccc2C12CCN(CCc1ccccc1)CC2", "note": "[Example 54, 2-methyl-1′-phenethyl-3,4-dihydro-2H-spiro[isoquinoline-1,4′-piperidine]]", "Ki": "< 100"}, {"compound": "COc1ccc2c(c1)CCN(C)C21CCN(CCc2ccccc2)CC1", "note": "[Example 55, 6-methoxy-2-methyl-1′-phenethyl-3,4-dihydro-2H-spiro[isoquinoline-1,4′-piperidine]]", "Ki": "< 100"}, {"compound": "CCN(CC)C(=O)CN1CCC2(CC1)c1ccccc1CCN2C", "note": "[Example 56, N,N-diethyl-2-(2-methyl-3,4-dihydro-2H-spiro[isoquinoline-1,4′-piperidine]-1′-yl)acetamide]", "Ki": "< 500"}, {"compound": "CN1CCc2ccccc2C12CCN(CC(=O)N1CCCOCC1)CC2", "note": "[Example 57, 2-(2-methyl-3,4-dihydro-2H-spiro[isoquinoline-1,4′-piperidine]-1′-yl)-1-(1,4-oxazepan-4-yl)ethanone]", "μ and σ1 dual binding": "++"}]}, {"biological_target": "human σ1 receptor and human μ-opioid receptor", "assay": "Human σ1 receptor radioligand assay and human μ-opioid receptor radioligand assay (μ and σ1 dual binding)", "design": "key to μ and σ1 dual binding: +: Both Ki-μ and Ki-σ1>=500 nM; ++: One Ki<500 nM while the other Ki is >=500 nM; +++: Both Ki-μ and Ki-σ1<500 nM; ++++: Both Ki-μ and Ki-σ1<100 nM", "details": "combined class for Ki-μ ([3H]-DAMGO, CHO-K1 membranes) and Ki-σ1 ([3H](+)-pentazocine, HEK-293 membranes)", "units": {"Ki": "nM"}, "values": [{"compound": "CC(=O)N1CCc2ccccc2C12CCN(CCN1CCCCC1)CC2", "note": "[Example 14, 1-(1′-(2-(piperidin-1-yl)ethyl)-3,4-dihydro-2H-spiro[isoquinoline-1,4′-piperidine]-2-yl)ethanone]", "Ki": "≥ 500"}, {"compound": "CC(=O)N1CCc2ccccc2C12CCN(CCC(=O)N(C)C)CC2", "note": "[Example 22, 3-(2-acetyl-3,4-dihydro-2H-spiro[isoquinoline-1,4′-piperidine]-1′-yl)-N,N-dimethylpropanamide]", "Ki": "≥ 500"}, {"compound": "CC(=O)N1CCc2ccccc2C12CCN(CC1CC1)CC2", "note": "[Example 33, 1-(1′-(Cyclopropylmethyl)-3,4-dihydro-2H-spiro[isoquinoline-1,4′-piperidine]-2-yl)ethanone]", "Ki": "≥ 500"}, {"compound": "CC(=O)N1CCc2ccccc2C12CCN(CC(=O)N1CCOCC1)CC2", "note": "[Example 34, 2-(2-acetyl-3,4-dihydro-2H-spiro[isoquinoline-1,4′-piperidine]-1′-yl)-1-morpholinoethanone]", "Ki": "≥ 500"}, {"compound": "CC(=O)N1CCc2ccccc2C12CCN(CCNC(=O)OC(C)(C)C)CC2", "note": "[Example 37, tert-butyl 2-(2-acetyl-3,4-dihydro-2H-spiro[isoquinoline-1,4′-piperidine]-1′-yl)ethylcarbamate]", "Ki": "≥ 500"}, {"compound": "CC(=O)OC(CN1CCC2(CC1)c1ccccc1CCN2C(C)=O)c1ccccc1", "note": "(stereo not drawn) [Example 39, 2-(2-Acetyl-3,4-dihydro-2H-spiro[isoquinoline-1,4′-piperidine]-1′-yl)-1-phenylethyl acetate]", "Ki": "≥ 500"}, {"compound": "CC(=O)N1CCc2ccccc2C12CCN(CCO)CC2", "note": "[Example 41, 1-(1′-(2-Hydroxyethyl)-3,4-dihydro-2H-spiro[isoquinoline-1,4′-piperidine]-2-yl)ethanone]", "Ki": "≥ 500"}, {"compound": "CC(=O)N1CCc2ccccc2C12CCN(CCN(C)C(=O)OC(C)(C)C)CC2", "note": "[Example 46, tert-Butyl 2-(2-acetyl-3,4-dihydro-2H-spiro[isoquinoline-1,4′-piperidine]-1′-yl)ethyl(methyl)carbamate]", "Ki": "≥ 500"}, {"compound": "CNCCN1CCC2(CC1)c1ccccc1CCN2C(C)=O", "note": "[Example 47, 1-(1′-(2-(Methylamino)ethyl)-3,4-dihydro-2H-spiro[isoquinoline-1,4′-piperidine]-2-yl)ethanone]", "Ki": "≥ 500"}, {"compound": "CC(=O)Oc1ccc2c(c1)CCN(C(C)=O)C21CCN(CCc2ccccc2)CC1", "note": "[Example 49, 2-Acetyl-1′-phenethyl-3,4-dihydro-2H-spiro[isoquinoline-1,4′-piperidine]-6-yl acetate]", "Ki": "≥ 500"}]}]}
